{"source": "patent US7326700B2", "about": "“Cyclohexenyl phenyl carboxamides tocolytic oxytocin receptor antagonists” (Wyeth, priority 2001, dated 2008)", "note": "Where a name gives a salt, the structure may show the parent alone.", "data": [{"biological_target": "T1, human oxytocin receptor (Homo sapiens, UniProt P30559)", "T1 construct": "host or cells: CHO cells, stably transfected (pcDNA3.1 vector)", "T1 sequence (P30559 1-389)": "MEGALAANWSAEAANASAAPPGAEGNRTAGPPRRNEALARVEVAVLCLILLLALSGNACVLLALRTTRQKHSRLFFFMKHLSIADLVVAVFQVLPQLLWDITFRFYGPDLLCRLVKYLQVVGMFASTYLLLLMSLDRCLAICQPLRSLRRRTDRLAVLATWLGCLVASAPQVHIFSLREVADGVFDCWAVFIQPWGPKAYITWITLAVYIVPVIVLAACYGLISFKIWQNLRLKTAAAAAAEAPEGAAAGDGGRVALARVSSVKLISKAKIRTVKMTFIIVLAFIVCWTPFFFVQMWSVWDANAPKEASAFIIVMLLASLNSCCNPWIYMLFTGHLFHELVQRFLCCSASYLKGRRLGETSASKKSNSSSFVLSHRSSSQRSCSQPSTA", "experiment": "Oxytocin binding in CHO cell membranes expressing human oxytocin receptors ([3H]oxytocin radioligand binding)", "conditions": "100 nM", "from_the_text": "(§1) Chinese Hamster Ovary (CHO) cells stably transfected with the human oxytocin recptor (cf. Tanizawa et al., U.S. Pat. No. 5,466,584 (1995) to Rohto Pharmaceutical Co. Ltd., Osaka, Japan) were obtained from M. Thibonnier, Case Western Reserve University School of Medicine, Cleveland, Ohio.\n(§2) CHO cells transfected with the human oxytocin receptors obtained from M. Thibonnier (pcDNA3.1 vector) are allowed to grow to confluency (approx. >90%) in T-150 flasks under sterile conditions, in a cell culture medium consisting of F-12 Nutrient Mixture (HAM) with L-glutamine (Gibco Cat. #11765-054) containing 15 mM HEPES (Gibco Cat. #15630-080), 1% antibiotic/antimycotic (add 5 mL 1 00×, Gibco Cat. #15240-062 per 500 mL F-12), 400 μg/mL of Geneticin (add 4 mL of 50 mg/mL per 500 mL F-12) and 10% Fetal Bovine Serum (Qualified, heat inactivated, Gibco Cat. #16140-063). The medium is removed by aspiration and the cells are washed with 10 mL of Hank's Balanced Salt solution (Gibco Cat. #14175-095). The salt solution is removed by aspiration and the cells trypsinized with 5 mL of trypsin-EDTA (0.05% trypsin, 0.53 mM EDTA-4Na, Gibco Cat. #25300-070) for 1 min The trypsin is removed by aspiration and the cells dislodged by tapping. Cell Culture medium (e.g. 30 mL for 1:30 split) is immediately added and mixed well to inactivate trypsin. 1 mL of detached cells is added to new culture flasks containing fresh Cell Culture medium (e.g. into 25 mL per T-150 flask), and mixed gently. The cells are incubated at 37° C. in 5% CO2. The medium is changed at 3 to 4 days interval (or as appropriate). The cells grow to confluency (approx. >75%-95%) within 7-8 days. All steps are done under sterile conditions.\n(§3) The cells are washed twice gently with Hank's Balanced Salt solution (eg, use 10 mL per T-150 flask). The excess solution is removed and the cells bathed for 15-30 min. in an enzyme-free Cell Dissociation Buffer (eg, use 8 mL Hank's Based, Gibco Cat. #13150-016 per T-150 flask) until cells are loosened. The contents are transferred to centrifuge tubes (50 mL size) kept in ice bath. All subsequent steps are done at 4° C. The tubes are centrifuged at 300×g for 15 min (1380 rpm on SORVAL, Model RT6000D, using rotor for 50 mL tubes). The supernatant is discarded and the cells suspended in homogenizing buffer (10 mM Tris-HCl containing 0.25 M sucrose and 1 mM EDTA, pH 7.4) ensuring that the volume of the buffer is about ten times the volume of the cell pellet. The cells are pooled into a centrifuge tube (50 mL) and homogenized with a Polytron at setting 6 for 10 sec. The homogenate is transferred into a Potter-Elvjehm homogenizer and homogenized with 3 strokes. The homogenate is centrifuged at 1500×g for 10 min at 4° C. (3100 rpm using SORVAL, model RT6000D, using rotor for 50 mL tubes). The pellet is discarded. The supernatant is centrifuged at 100,000×g for 60 min. at 4° C. (Beckman L8-80M ultracentrifuge; spin at 37,500 rpm with rotor type 70 Ti for 50 mL tubes; 38,000 rpm with type 80 Ti for 15 mL tubes; or 35,800 rpm with rotor type 45Ti). The supernantant is discarded and the pellet suspended in 3 to 4 mL of Tris buffer (50 mM TRIS-HCl, pH 7.4). The protein content is estimated by the Bradford or Lowry method. The volume of the membrane suspension is adjusted with the membrane buffer (50 mM Tris-HCl containing 0.1% BSA and 0.1 mM PMSF) to give 3.0 mg/mL (or as appropriate) of protein. The membranes are aliquoted and stored at −70° C.\n(§4) In wells of a 96-well format microtiter plate, is added 90, 110 or 130 μL (to make up a final volume of 200 μL) of assay buffer containing 50 mM of Tris-HCl (pH 7.4), […], 1 mg % aprotinin, 1 mg % leupeptin, 2 mg % 1,10-phenanthroline, 10 mg % trypsin inhibitor, and 0.1 mM PMSF. The inhibitors are added on the day of the experiment. The components are mixed at room temperature, and then kept in ice bath following adjustment of the pH to 7.4. […]", "units": {"OT % inhibition @ 100 nM": "%"}, "values": [{"smiles": "Cc1cc(C(=O)N2Cc3ccc(C(=O)N4CCCN(C)CC4)n3Cc3ccccc32)ccc1C1=CCCCC1", "note": "[Example 13, {10-[4-(1-Cyclohex-1-en-1-yl)-3-methylbenzoyl]-10,11-dihydro-5H-pyrrolo[2,1-c][1,4]benzodiazepin-3-yl}(4-methyl-1,4-diazepan-1-yl)methanone]", "OT % inhibition @ 100 nM": 90}, {"smiles": "Cc1cc(C(=O)N2Cc3ccc(C(=O)NCCCN(C)C)n3Cc3ccccc32)ccc1C1=CCCCC1", "note": "[Example 14, 10-[4-(1-Cyclohex-1-en-1-yl)-3-methylbenzoyl]-N-[3-(dimethylamino)propyl]-10,11-dihydro-5H-pyrrolo[2,1-c][1,4]benzodiazepine-3-carboxamide]", "OT % inhibition @ 100 nM": 57}, {"smiles": "Cc1cc(C(=O)N2Cc3ccc(C(=O)N(C)CCN(C)C)n3Cc3ccccc32)ccc1C1=CCCCC1", "note": "[Example 15, 10-[4-(1-Cyclohex-1-en-1-yl)-3-methylbenzoyl]-N-[2-(dimethylamino)ethyl]-N-methyl-10,11-dihydro-5H-pyrrolo[2,1-c][1,4]benzodiazepine-3-carboxamide]", "OT % inhibition @ 100 nM": 99}, {"smiles": "Cc1cc(C(=O)N2Cc3ccc(C(=O)N(C)CCCN(C)C)n3Cc3ccccc32)ccc1C1=CCCCC1", "note": "[Example 16, 10-[4-(1-Cyclohex-1-en-1-yl)-3-methylbenzoyl]-N-[3-(dimethylamino)propyl]-N-methyl-10,11-dihydro-5H-pyrrolo[2,1-c][1 ,4]benzodiazepine-3-carboxamide]", "OT % inhibition @ 100 nM": 99}, {"smiles": "Cc1cc(C(=O)N2Cc3ccc(C(=O)N4CCC(N5CCCCC5)CC4)n3Cc3ccccc32)ccc1C1=CCCCC1", "note": "[Example 17, {10-[4-(1-Cyclohex-1-en-1-yl)-3-methylbenzoyl]-10,11-dihydro-5H-pyrrolo[2,1-c][1,4]benzodiazepin-3-yl}[4-(1-piperidinyl)-1-piperidinyl]methanone]", "OT % inhibition @ 100 nM": 86}, {"smiles": "Cc1cc(C(=O)N2Cc3ccc(C(=O)NCCCn4ccnc4)n3Cc3ccccc32)ccc1C1=CCCCC1", "note": "[Example 18, 10-[4-(1-Cyclohex-1-en-1-yl)-3-methylbenzoyl]-N-[3-(1H-imidazol-1-yl)propyl]10,11-dihydro-5H-pyrrolo[2,1-c][1,4]benzodiazepine-3-carboxamide]", "OT % inhibition @ 100 nM": 41}, {"smiles": "Cc1cc(C(=O)N2Cc3ccc(C(=O)N4CCC(N5CCCC5)CC4)n3Cc3ccccc32)ccc1C1=CCCCC1", "note": "[Example 19, {10-[4-(1-Cyclohex-1-en-1-yl)-3-methylbenzoyl]-10,11-dihydro-5H-pyrrolo[2,1c][1,4]benzodiazepin-3-yl}[4-(1-pyrrolidinyl)-1-piperidinyl]methanone]", "OT % inhibition @ 100 nM": 82}, {"smiles": "Cc1cc(C(=O)N2Cc3ccc(C(=O)NCCN4CCCCC4)n3Cc3ccccc32)ccc1C1=CCCCC1", "note": "[Example 20, 10-[4-(1-Cyclohex-1-en-1-yl)-3-methylbenzoyl]-N-[2-(1-piperidinyl)ethyl]-10,11-dihydro-5H-pyrrolo[2,1-c][1,4]benzodiazepine-3-carboxamide]", "OT % inhibition @ 100 nM": 52}]}, {"biological_target": "T1, human oxytocin receptor", "experiment": "Oxytocin binding in CHO cell membranes expressing human oxytocin receptors ([3H]oxytocin radioligand binding)", "conditions": "100 nM, read-out: OT % inhibition @ 100 nM", "from_the_text": "as §1, §2, §3, §4", "units": {"inhibition at 0.1 µM": "%"}, "values": [{"smiles": "COc1cc(C2=CCCCC2)c(Cl)cc1C(=O)N1Cc2ccc(C(=O)N(C)CCCN(C)C)n2Cc2ccccc21", "note": "[Example 2, 10-(5-Chloro-4-cyclohex-1-en-1-yl-2-methoxybenzoyl)-N-[3-(dimethylamino)propyl]-N-methyl-10,11-dihydro-5H-pyrrolo[2,1-c][1,4]benzodiazepine-3-carboxamide]", "inhibition at 0.1 µM": 100}, {"smiles": "Cc1cc(C(=O)N2Cc3ccc(C(=O)N4CCN(CCCN(C)C)CC4)n3Cc3ccccc32)ccc1C1=CCCCC1", "note": "[Example 5, [10-(4-Cyclohex-1-en-1-yl-3-methyl-benzoyl)-10,11-dihydro-5H-pyrrolo[2,1-c][1,4]benzodiazepin-3-yl]-[4-(3-dimethylamino-propyl)-piperazin-1-yl]-methanone]", "inhibition at 0.1 µM": 94}, {"smiles": "Cc1cc(C(=O)N2Cc3ccc(C(=O)N4CCN(CCCN(C)C)CC4)n3Cc3ccccc32)ccc1C1=CCCc2ccccc21", "note": "[Example 7, {10-[4-(3,4-Dihydro-naphthalen-1-yl)-3-methyl-benzoyl]-10,11-dihydro-5H-pyrrolo[2,1-c][1,4]benzodiazepin-3-yl}-[4-(3-dimethylamino-propyl)-piperazin-1-yl]-methanone]", "inhibition at 0.1 µM": 91}, {"smiles": "CC1=C(c2ccc(C(=O)N3Cc4ccc(C(=O)N5CCN(C)CC5)n4Cc4ccccc43)cc2C)CCCC1O", "note": "(centres unmarked) [Example 10, [4-(3-Hydroxy-2-methyl-cyclohex-1-en-1-yl)-3-methyl-phenyl]-[3-(4-methyl-piperazine-1carbonyl)-10,11-dihydro-5H-pyrrolo[2,1-c][1,4]benzodiazepin-10-yl]-methanone]", "inhibition at 0.1 µM": 91}, {"smiles": "CC1=C(c2ccc(C(=O)N3Cc4ccc(C(=O)N5CCN(C)CC5)n4Cc4ccccc43)cc2C)CCC[C@H]1O", "note": "[Example 11, [4-((3R)-3-Hydroxy-2-methyl-cyclohex-1-en-1-yl)-3-methyl-phenyl]-[3-(4-methyl-piperazine-1-carbonyl)-10,11-dihydro-5H-pyrrolo [2,1-c][1,4]benzodiazepin-10-yl]-methanone]", "inhibition at 0.1 µM": 86}]}, {"biological_target": "T1, human oxytocin receptor", "experiment": "Oxytocin binding in CHO cell membranes expressing human oxytocin receptors ([3H]oxytocin radioligand binding)", "conditions": "value in parentheses, read-out: OT (IC50)", "from_the_text": "as §1, §2, §3, §4", "units": {"IC50": "nM"}, "values": [{"smiles": "COc1cc(C2=CCCCC2)c(Cl)cc1C(=O)N1Cc2ccc(C(=O)N3CCC[C@H]3CN3CCCC3)n2Cc2ccccc21", "note": "[Example 1, 4-Chloro-5-cyclohex-1-en-1-yl-2-[(3-{[(2S)-2-(pyrrolidin-1-ylmethyl)pyrrolidin-1-yl]carbonyl}-5H-pyrrolo [2,1-c][1,4]benzodiazepin-10(11H)-yl)carbonyl]phenyl methyl ether]", "IC50": 1.88}, {"smiles": "COc1cc(C2=CCCCC2)c(Cl)cc1C(=O)N1Cc2ccc(C(=O)N(C)CCCN(C)C)n2Cc2ccccc21", "note": "[Example 3, 10-(5-Chloro-4-cyclohex-1-en-1-yl-2-methoxybenzoyl)-N-[3-(dimethylamino)propyl]-N-methyl-10,11-dihydro-5H-pyrrolo[2,1-c][1,4]benzodiazepine-3-carboxamide citric acid salt]", "IC50": 9.04}, {"smiles": "Cc1cc(C(=O)N2Cc3ccc(C(=O)N4CCN(C)CC4)n3Cc3ccccc32)ccc1C1=CCCCC1", "note": "[Example 4, [10-(4-Cyclohex-1-en-1-yl-3-methyl-benzoyl)-10,11-dihydro-5H-pyrrolo[2,1-c][1,4]benzodiazepin-3-yl]-(4-methyl-piperazin-1-yl)-methanone]", "IC50": 7.47}, {"smiles": "Cc1cc(C(=O)N2Cc3ccc(C(=O)N4CCN(C)CC4)n3Cc3ccccc32)ccc1C1=CCCc2ccccc21", "note": "[Example 6, {10-[4-(3,4-Dihydro-naphthalen-1-yl)-3-methyl-benzoyl]-10,11-dihydro-5H-benzo[e]pyrrolo[1,2-a][1,4]diazepin-3-yl}-(4-methyl-piperazin-1-yl)-methanone]", "IC50": 25.3}]}]}
